From BindingDB's records for doi:10.1021/acs.jmedchem.0c00377 (Huazhong University of Science and Technology, 2020)
pKd: −log10 of the molar value.

Tests used:
[1] = Binding affinity to recombinant TNFalpha (unknown origin) expressed in Escherichia coli BL21 (DE3) assessed as Kd for TNF-alpha-TNFR1 binding at 10 uM pe-incubated for 15 mins before TNFR1 addition and measured after 15 mins by MST assay (Rvb = 0.23 uM)
[2] = Binding affinity to recombinant TNFalpha (unknown origin) expressed in Escherichia coli BL21 (DE3) assessed as Kd for TNF-alpha-TNFR1 binding at 100 uM pe-incubated for 15 mins before TNFR1 addition and measured after 15 mins by MST assay (Rvb = 0.23 uM)

**Q.** What does the source list for `O=C1C[C@H](Nc2ncnc3[nH]cnc23)CN1Cc1ccccc1`?
**A.** pKd [1]: 5.37; pKd [2]: 4.71
